Laboratory results published in the NIST ThermoML archive (doi:10.1021/je060353z).
Several values for one entry are separate records, joined by “and”; a condition that tells them apart may be missing. Identical values can stand only once. ± gives the expanded uncertainty stated by the source.

What was measured:
[1] = 101 kPa, Liquid
[2] = xn = mol fraction of the nth substance listed; details: 101 kPa, Liquid

Clc1ccccc1 [chlorobenzene]
[1]
Details | mass density | speed of sound [m/s] | viscosity [mPa·s]
298.15 K | 1100.97 ± 0.34 kg/m3 and 1100.67 ± 0.34 kg/m3 | 1268 ± 1.4 | 0.757 ± 0.014
303.15 K | 1095.1 ± 0.33 kg/m3 | 1249.4 ± 1.4 | 0.714 ± 0.014
308.15 K | 1089.08 ± 0.32 kg/m3 | 1230.9 ± 1.4 | 0.677 ± 0.014
313.15 K | 1083.66 ± 0.31 kg/m3 | 1212.6 ± 1.4 | 0.617 ± 0.013

CCCCCCCCCCO [decan-1-ol]
[1]
Details | mass density [kg/m3] | speed of sound [m/s] | viscosity [mPa·s]
298.15 K | 826.762 ± 0.43 | 1380 ± 1.5 | 11.83 ± 0.1
303.15 K | 822.853 ± 0.43 | 1365 ± 1.5 | 9.754 ± 0.087
308.15 K | 819.427 ± 0.44 | 1346.1 ± 1.4 | 8.135 ± 0.074
313.15 K | 815.983 ± 0.45 | 1329.3 ± 1.4 | 6.842 ± 0.063

CCCCCCCO [heptan-1-ol]
[1]
Details | mass density [kg/m3] | speed of sound [m/s] | viscosity [mPa·s]
298.15 K | 818.732 ± 0.44 | 1327.3 ± 1.4 | 5.944 ± 0.056
303.15 K | 815.287 ± 0.45 | 1313.6 ± 1.4 | 5.069 ± 0.049
308.15 K | 811.737 ± 0.45 | 1293.9 ± 1.4 | 4.333 ± 0.043
313.15 K | 808.162 ± 0.46 | 1277.2 ± 1.4 | 3.726 ± 0.038

CCCCCCO [hexan-1-ol]
[1]
Details | mass density [kg/m3] | speed of sound [m/s] | viscosity [mPa·s]
298.15 K | 815.23 ± 0.45 | 1304.7 ± 1.4 | 4.594 ± 0.045
303.15 K | 812.118 ± 0.45 | 1287.9 ± 1.4 | 3.887 ± 0.039
308.15 K | 808.482 ± 0.46 | 1271.1 ± 1.4 | 3.359 ± 0.035
313.15 K | 804.811 ± 0.46 | 1254.5 ± 1.4 | 2.914 ± 0.031

CCCCCCCCCO [nonan-1-ol]
[1]
Details | mass density [kg/m3] | speed of sound [m/s] | viscosity [mPa·s]
298.15 K | 824.478 ± 4 | 1365.5 ± 5.2 | 9.715 ± 0.26
303.15 K | 821.044 ± 4 | 1353.6 ± 5.2 | 7.927 ± 0.21
308.15 K | 817.582 ± 4 | 1331.8 ± 5.2 | 6.664 ± 0.18
313.15 K | 814.098 ± 4 | 1315 ± 5.2 | 5.645 ± 0.15

CCCCCCCCCO [nonan-1-ol] + Clc1ccccc1
[2]
Details | mass density [kg/m3] | speed of sound [m/s] | viscosity [mPa·s]
298.15 K, x2 = 0 | 824.478 ± 4 | 1365.5 ± 5.2 | 9.715 ± 0.26
298.15 K, x2 = 0.1529 | 850.648 ± 3.2 | 1350.5 ± 4.5 | 6.576 ± 0.15
298.15 K, x2 = 0.3008 | 879.504 ± 2.5 | 1333.3 ± 3.9 | 4.488 ± 0.092
298.15 K, x2 = 0.4379 | 910.112 ± 1.8 | 1316.2 ± 3.3 | 3.135 ± 0.057
298.15 K, x2 = 0.5505 | 938.617 ± 1.4 | 1302.2 ± 2.9 | 2.329 ± 0.039
298.15 K, x2 = 0.6413 | 964.273 ± 1 | 1291.1 ± 2.5 | 1.828 ± 0.029
298.15 K, x2 = 0.7273 | 991.186 ± 0.73 | 1281.2 ± 2.2 | 1.455 ± 0.023
298.15 K, x2 = 0.8031 | 1017.42 ± 0.55 | 1274 ± 1.9 | 1.192 ± 0.019
298.15 K, x2 = 0.8744 | 1044.71 ± 0.44 | 1269 ± 1.7 | 0.999 ± 0.017
298.15 K, x2 = 0.937 | 1071.14 ± 0.38 | 1267.1 ± 1.5 | 0.864 ± 0.015
303.15 K, x2 = 0 | 821.044 ± 4 | 1353.6 ± 5.2 | 7.927 ± 0.21
303.15 K, x2 = 0.1529 | 846.995 ± 3.2 | 1332.6 ± 4.5 | 5.56 ± 0.13
303.15 K, x2 = 0.3008 | 875.625 ± 2.4 | 1315.8 ± 3.9 | 3.876 ± 0.08
303.15 K, x2 = 0.4379 | 906.014 ± 1.8 | 1299.5 ± 3.3 | 2.752 ± 0.051
303.15 K, x2 = 0.5505 | 934.309 ± 1.4 | 1286 ± 2.8 | 2.07 ± 0.035
303.15 K, x2 = 0.6413 | 959.757 ± 1 | 1275.1 ± 2.5 | 1.646 ± 0.027
303.15 K, x2 = 0.7273 | 986.433 ± 0.73 | 1265.4 ± 2.2 | 1.325 ± 0.021
303.15 K, x2 = 0.8031 | 1012.44 ± 0.54 | 1257.7 ± 1.9 | 1.097 ± 0.018
303.15 K, x2 = 0.8744 | 1039.48 ± 0.43 | 1252 ± 1.7 | 0.924 ± 0.016
303.15 K, x2 = 0.937 | 1065.72 ± 0.37 | 1249.1 ± 1.5 | 0.802 ± 0.015
308.15 K, x2 = 0 | 817.582 ± 4 | 1331.8 ± 5.2 | 6.664 ± 0.18
308.15 K, x2 = 0.1529 | 843.265 ± 3.2 | 1315.5 ± 4.5 | 4.745 ± 0.11
308.15 K, x2 = 0.3008 | 871.65 ± 2.4 | 1298.5 ± 3.9 | 3.365 ± 0.07
308.15 K, x2 = 0.4379 | 901.759 ± 1.8 | 1281.7 ± 3.3 | 2.433 ± 0.045
308.15 K, x2 = 0.5505 | 929.764 ± 1.4 | 1267.7 ± 2.8 | 1.858 ± 0.032
308.15 K, x2 = 0.6413 | 954.969 ± 1 | 1256.3 ± 2.5 | 1.493 ± 0.025
308.15 K, x2 = 0.7273 | 981.393 ± 0.73 | 1246.3 ± 2.1 | 1.205 ± 0.02
308.15 K, x2 = 0.8031 | 1007.14 ± 0.53 | 1238.5 ± 1.9 | 1.014 ± 0.017
308.15 K, x2 = 0.8744 | 1033.95 ± 0.42 | 1233 ± 1.7 | 0.869 ± 0.016
308.15 K, x2 = 0.937 | 1059.96 ± 0.36 | 1231.5 ± 1.5 | 0.764 ± 0.015
313.15 K, x2 = 0 | 814.098 ± 4 | 1315 ± 5.2 | 5.645 ± 0.15
313.15 K, x2 = 0.1529 | 839.584 ± 3.1 | 1299.4 ± 4.5 | 4.074 ± 0.096
313.15 K, x2 = 0.3008 | 867.761 ± 2.4 | 1282 ± 3.9 | 2.935 ± 0.062
313.15 K, x2 = 0.4379 | 897.663 ± 1.8 | 1264.9 ± 3.3 | 2.152 ± 0.041
313.15 K, x2 = 0.5505 | 925.493 ± 1.4 | 1251 ± 2.8 | 1.658 ± 0.029
313.15 K, x2 = 0.6413 | 950.508 ± 1 | 1239.8 ± 2.5 | 1.346 ± 0.023
313.15 K, x2 = 0.7273 | 976.738 ± 0.73 | 1229.8 ± 2.1 | 1.094 ± 0.019
313.15 K, x2 = 0.8031 | 1002.28 ± 0.51 | 1221.8 ± 1.9 | 0.919 ± 0.016
313.15 K, x2 = 0.8744 | 1028.88 ± 0.41 | 1215.6 ± 1.6 | 0.775 ± 0.015
313.15 K, x2 = 0.937 | 1054.7 ± 0.35 | 1213.3 ± 1.5 | 0.676 ± 0.014

CCCCCCCCO [octan-1-ol] + Clc1ccccc1
[2], x2 = 0
Details | mass density [kg/m3] | speed of sound [m/s] | viscosity [mPa·s]
298.15 K | 821.826 ± 0.44 | 1347.8 ± 1.4 | 7.661 ± 0.07
303.15 K | 818.23 ± 0.44 | 1338 ± 10 | 6.402 ± 0.06
308.15 K | 814.737 ± 0.45 | 1314.3 ± 1.4 | 5.425 ± 0.052
313.15 K | 810.098 ± 0.45 | 1297.6 ± 1.4 | 4.628 ± 0.045
